Here are results for one molecule from patent US20250206779A1, “ANGIOTENSIN-(1-9) ANALOGUE BASED ON D AMINO ACIDS, PHARMACEUTICAL COMPOSITIONS AND USES THEREOF” (UNIVERSIDAD DE CHILE, priority 2021, published 2025).

Molecules are shown by their SMILES. “Also recorded” adds a separate entry of the source. Where a SMILES comes first, the peptide text is derived from it. [ ]: non-standard residue; d: D form.

Experiment [1] deals with isolated hearts from adult male Sprague-Dawley rats. Nature of the experiment: Infarct size in isolated hearts subjected to ischemia/reperfusion (Langendorff, TTC staining). Set-up: species or system rat. The conditions noted are these: 50 nM peptide in reperfusion, 30 min global ischemia, ex vivo. The method, then:
The cardioprotective effects of retro-inverse angiotensin-(1-9) were also investigated in isolated hearts from adult male Sprague-Dawley rats (250-300 g) subjected to ischemia/reperfusion (I/R) using a Langendorff procedure. Rats were anesthetized with pentobarbital [80 mg/kg intraperitoneally (i.p.)] and heparin 100 U/kg was injected into the right atria. Hearts were rapidly harvested and perfused through the aorta with Krebs-Henseleit solution containing NaCl 128.3 mM, KCl 4.7 mM, CaCl2 1.35 mM, MgSO4 1.1 mM, NaHCO3 20.2 mM, NaH2PO4 0.4 mM and glucose 11.1 mM, pH 7.4 (equilibrated with a gas mixture of 95% O2 and 5% CO2 at 37° C.), using a peristaltic pump (Gilson Miniplus 3, France). A latex balloon connected to a pressure transducer was placed through the left atrium and mitral valve into the left ventricle. The balloon was filled with saline to determine isovolumetric intraventricular pressure. Perfusion flow was 10-14 mL/min. Hearts were placed in a heated chamber and paced at 240-300 beats/min with platinum electrodes, using a Grass stimulator (pulses of 5V, 1 ms). […] The infarct size was determined using 2,3,5-triphenyltetrazolium chloride (TTC) staining. […]

In experiment [2] the test system is spontaneously hypertensive rats (SHR). Kind of experiment: Blood pressure in spontaneously hypertensive rats. It counts as in vivo, rat. The following applies: SHR, 300, 600, 1200 ng/kg/min, osmotic minipumps, 14 days. The method, then:
(§1) Experimental animal model. All procedures were performed in accordance with the Guide for the Care and Use of Laboratory Animals published by the U.S. National Institutes of Health (NIH Publication 85 23, 1985) and approved by our Institutional Bioethics Committee. The animals were housed under the continuous professional monitoring of the Medical Veterinary staff in the animal facility of the Pontificia Universidad Católica de Chile, under the following conditions: 12-h light-dark cycle; 21° C. ambient temperature; 50% humidity; adequate ventilation; noise-free environment; and food and water ad libitum. Male spontaneously hypertensive rats (SHR, age 12 weeks) and normotensive Wistar Kyoto rats (WKY, 12 weeks age) were used. […] Systolic blood pressure (SBP), diastolic blood pressure (DBP) and body weight (BW) were measured at the end of the treatment period and the animals were then sacrificed.
Hemodynamic evaluations. SBP and DBP were measured twice per week by a researcher blinded to study group, using a CODA 2 noninvasive pressure device with volume-pressure recording (Kent Scientific Corporation, Torrington, CT, USA). […]

The test system is the same in experiment [3]. Kind of experiment: Cardiac inflammation by monocyte infiltration in SHR, ED-1 immunohistochemistry. It is filed as in vivo, rat. The following applies: SHR, 1,200 ng/kg/min, 14 days. The method, then:
as §1
Evaluation of cardiac inflammation by monocyte infiltration. Monocyte infiltration was assessed as a marker of cardiac inflammation. Monocytes were detected by immunohistochemistry using ED-1. […] In hypertense SHR increased ED-1 positive cells was detected in the hearts, indicating the presence of monocyte infiltration, a marker of cardiac inflammation.

For experiment [4] the test system is unchanged. Kind of experiment: Cardiac-resident macrophage phenotype M1/M2 in SHR, flow cytometry. It is filed as in vivo, rat. The conditions noted are these: SHR, 1,200 ng/kg/min, 14 days. The protocol: as §1, with “sacrificed. […]” for “sacrificed.”

Consider `CC[C@@H](C)[C@@H](NC(=O)[C@@H](Cc1c[nH]cn1)NC(=O)[C@H]1CCCN1C(=O)[C@@H](Cc1ccccc1)NC(=O)[C@H](N)Cc1c[nH]cn1)C(=O)N[C@H](Cc1ccc(O)cc1)C(=O)N[C@@H](C(=O)N[C@H](CCCNC(=N)N)C(=O)N[C@H](CC(=O)O)C(=O)O)C(C)C` [retro-inverse angiotensin-(1-9), NH2-^DH^DF^DP^DH^DI^DY^DV^DR^DD-COOH] (H-[dH][dF][dP][dH][dI][dY][dV][dR][dD]-OH), for which the “decrease of infarct size” value in experiment [1] is recorded as “around 70%”. Besides, in experiment [2], the “diastolic blood pressure (DBP)” value is “reduced SBP and DBP in a dose-dependent manner”; the “systolic blood pressure (SBP)” value was “reduced SBP and DBP in a dose-dependent manner”. Besides, in experiment [3], the “accumulation of ED-1 positive cells in cardiac tissue” value is “completely revert”. Moreover, in experiment [4], the “macrophages M1 in cardiac tissues” value is recorded as “reversed the increase; also recorded: more marked decrease in macrophages M1 than angiotensin-(1-9)” and the “macrophages M2 in cardiac tissues” value is recorded as “increases the macrophages M2”.
